# Experimental data taken from patent publication US10435447B2, “Bacteriocidal peptides and uses thereof” (priority 2015, dated 2019).
# Like-named read-outs stand apart in the source and are kept apart here. Residues, ends and D or L forms follow the SMILES beside them.
# Legend:
# E. cloacae [1] = tested on: E. cloacae
# E. coli [2] = conditions: for MEM MIC fold change (↓ decrease) / LVX MIC fold change (↓ decrease): with SMAP-29C* vs alone
# K. pneumoniae [3] = tested on: K. pneumoniae
# P. aeruginosa [4] = tested on: P. aeruginosa
# S. marcescens [5] = tested on: S. marcescens
# E. cloacae [6] = assay: microbe, parasite or virus in culture; conditions: Enterobacter cloacae
# E. coli [7] = assay: microbe, parasite or virus in culture; conditions: Escherichia coli
# K. pneumoniae [8] = assay: microbe, parasite or virus in culture; conditions: Klebsiella pneumoniae
# P. aeruginosa [9] = assay: microbe, parasite or virus in culture; conditions: Pseudomonas aeruginosa
# S. marcescens [10] = assay: microbe, parasite or virus in culture; conditions: Serratia marcescens
# [11] = tested on: Toll-like receptor 3 (TLR3); assay: IL-6 ELISA, TLR3 signaling with poly(I:C) in BEAS-2B cells; type: cell-based, human
# Protocol: Innate immune signaling by endogenous Toll-like receptor 3 (TLR3) in BEAS-2B cells in response to double-stranded RNA and various bacteriocidal peptides. IL-6 cytokine produced in response to signal transduction by TLR3 and the double-stranded RNA mimic, poly(I:C), was quantified using ELISA. Where present, the peptides were added to the media of BEAS-2B cells to a final concentration of 2 μM. […] All assays were performed in three independent samples and the mean and one standard error is shown above the bars.
# [12] = tested on: Toll-like receptor 3 (TLR3); conditions: mouse cells and human cells; earlier finding; cited from earlier work
# TLR4 = conditions: earlier finding; cited from earlier work
# [13] = E. cloacae OC 4080, with SMAP-29C* vs alone
# [14] = K. pneumoniae OC 4110, with SMAP-29C* vs alone
# [15] = P. aeruginosa PA01 oprD, with SMAP-29C* vs alone
# [16] = S. marcescens 4104, with SMAP-29C* vs alone
# [17] = read-out: MEM + SMAP-29C* (MEM MIC)
# [18] = read-out: Kan + SMAP-29C* (Kan MIC)
compound,measurement,setting,value
CC[C@H](C)[C@H](NC(=O)[C@H](CCCCN)NC(=O)[C@H](CCCNC(=N)N)NC(=O)CNC(=O)[C@H](CC(C)C)NC(=O)[C@H](CCCNC(=N)N)NC(=O)[C@H](CCCNC(=N)N)NC(=O)[C@H](CC(C)C)NC(=O)CNC(=O)[C@@H](N)CCCNC(=N)N)C(=O)N[C@@H](C)C(=O)N[C@@H](Cc1c[nH]cn1)C(=O)NCC(=O)N[C@H](C(=O)N[C@@H](CCCCN)C(=O)N[C@@H](CCCCN)C(=O)N[C@@H](CS)C(=O)NCC(=O)N1CCC[C@H]1C(=O)N[C@H](C(=O)N[C@H](C(=O)N[C@@H](CC(C)C)C(=O)N[C@@H](CCCNC(=N)N)C(=O)N[C@H](C(=O)N[C@H](C(=O)N[C@@H](CCCNC(=N)N)C(=O)N[C@H](C(=O)N[C@@H](C)C(=O)NCC(=O)N[C@@H](CS)C(=O)O)[C@@H](C)CC)[C@@H](C)CC)[C@@H](C)CC)C(C)C)[C@@H](C)O)C(C)C [SMAP-29C] (H-RGLRRLGRKIAHGVKKCGPTVLRIIRIAGC-OH; N-terminus and C-terminus assumed),MIC,E. faecalis,32 µg/mL
same,MIC for ShpC + Kan*,"E. cloacae [1]; E. cloacae OC 4080, with Kan* 1 μg/ml (½ MIC)",2 µg/mL
same,MIC for ShpC + Kan*,"E. coli [2]; E. coli ATCC25922, with Kan* 1 μg/ml (½ MIC)",<0.25 µg/mL
same,MIC for ShpC + Kan*,"E. coli [2]; E. coli IU-342, with Kan* 8 μg/ml (½ MIC)",2 µg/mL
same,MIC for ShpC + Kan*,"K. pneumoniae [3]; K. pneumoniae OC 4110, with Kan* 2 μg/ml (½ MIC)",2 µg/mL
same,SMAP-29C MIC fold change (↓ decrease),"K. pneumoniae [3]; K. pneumoniae OC 4110, with Kan* vs alone",↓4x fold
same,SMAP-29C MIC fold change (↓ decrease),"K. pneumoniae [3]; K. pneumoniae OC 4110, with LVX* vs alone",1x fold
same,SMAP-29C MIC fold change (↓ decrease),"K. pneumoniae [3]; K. pneumoniae OC 4110, with MEM* vs alone",↓2x fold
same,MIC for ShpC + Kan*,P. aeruginosa [4],2 µg/mL
same,MIC for ShpC + Kan*,"S. marcescens [5]; S. marcescens 4104, with Kan* 2 μg/ml (½ MIC)",2 µg/mL
same,SMAP-29C MIC fold change (↓ decrease),"S. marcescens [5]; S. marcescens 4104, with Kan* vs alone",↓>8x fold
same,SMAP-29C MIC fold change (↓ decrease),"S. marcescens [5]; S. marcescens 4104, with LVX* vs alone",↓>4x fold
same,SMAP-29C MIC fold change (↓ decrease),"S. marcescens [5]; S. marcescens 4104, with MEM* vs alone",No change
"C[C@@H](O)[C@H]1C(=O)N2C(C(=O)O)=C(S[C@@H]3CN[C@H](C(=O)N(C)C)C3)[C@H](C)[C@H]12 [MEM, Meropenem]",MEM MIC fold change (↓ decrease),E. cloacae [1]; [13],↓4x fold
same,MEM MIC fold change (↓ decrease),E. coli [2]; E. coli ATCC 25922,↓2x fold
same,MEM MIC fold change (↓ decrease),E. coli [2]; E. coli IU-342,↓>4x fold
same,MEM MIC fold change (↓ decrease),K. pneumoniae [3]; [14],1x fold
same,MEM MIC fold change (↓ decrease),P. aeruginosa [4]; [15],↓2x fold
same,MEM MIC fold change (↓ decrease),S. marcescens [5]; [16],↓4x fold
same,MIC,E. cloacae [6]; read-out: MEM (MIC alone),0.032 µg/mL
same,MIC,E. cloacae [6]; [17],0.008 µg/mL
same,MIC,"E. coli [7]; ATCC25922, read-out: MEM (MIC alone)",0.016 µg/mL
same,MIC,"E. coli [7]; ATCC25922, read-out: MEM + SMAP-29C* (MEM MIC)",0.008 µg/mL
same,MIC,E. coli [7]; read-out: MEM (MIC alone),0.016 µg/mL
same,MIC,E. coli [7]; [17],< 0.004 µg/mL
same,MIC,K. pneumoniae [8]; read-out: MEM (MIC alone),0.052 µg/mL
same,MIC,K. pneumoniae [8]; [17],0.032 µg/mL
same,MIC,P. aeruginosa [9]; read-out: MEM (MIC alone),1 µg/mL
same,MIC,P. aeruginosa [9]; [17],0.5 µg/mL
same,MIC,S. marcescens [10]; read-out: MEM (MIC alone),0.032 µg/mL
same,MIC,S. marcescens [10]; [17],0.008 µg/mL
"C[C@H]1COc2c(N3CCN(C)CC3)c(F)cc3c(=O)c(C(=O)O)cn1c23 [LVX, Levofloxacin]",LVX + SMAP-29C* (LVX MIC),E. cloacae [1],<0.004 µg/mL
same,LVX MIC fold change (↓ decrease),E. cloacae [1]; [13],↓>8x fold
same,LVX MIC fold change (↓ decrease),E. coli [2]; E. coli ATCC 25922,1 fold
same,LVX MIC fold change (↓ decrease),E. coli [2]; E. coli IU-342,↓4x fold
same,LVX + SMAP-29C* (LVX MIC),K. pneumoniae [3],0.5 µg/mL
same,LVX MIC fold change (↓ decrease),K. pneumoniae [3]; [14],1 fold
same,LVX + SMAP-29C* (LVX MIC),P. aeruginosa [4],<0.125 µg/mL
same,LVX MIC fold change (↓ decrease),P. aeruginosa [4]; [15],↓>32x fold
same,LVX + SMAP-29C* (LVX MIC),S. marcescens [5],<0.125 µg/mL
same,LVX MIC fold change (↓ decrease),S. marcescens [5]; [16],↓>32x fold
same,MIC,E. cloacae [6]; read-out: LVX (MIC alone),0.032 µg/mL
same,MIC,"E. coli [7]; ATCC25922, read-out: LVX (MIC alone)",0.016 µg/mL
same,MIC,E. coli [7]; read-out: LVX (MIC alone),8 µg/mL
same,MIC,K. pneumoniae [8]; read-out: LVX (MIC alone),0.5 µg/mL
same,MIC,P. aeruginosa [9]; read-out: LVX (MIC alone),4 µg/mL
same,MIC,S. marcescens [10]; read-out: LVX (MIC alone),4 µg/mL
"CRAMP: SEQ ID NO: 4, mouse ortholog of LL-37, GLLRKGGEKIGEKLKKIGQKIKNFFQKLVPQPEQ (listed as Mus musculus)",enhancement of TLR3 signaling / IL-6 production (in words),[11],unable to enhance IL-6 production
same,activation of signaling by TLR3,[12],unable to activate signaling by TLR3
same,suppression of inflammatory response induced by lipopolysaccharide,TLR4,retained the ability to suppress inflammatory response
"NC[C@H]1O[C@H](O[C@H]2[C@H](O)[C@@H](O[C@H]3O[C@H](CO)[C@@H](O)[C@H](N)[C@H]3O)[C@H](N)C[C@@H]2N)[C@H](O)[C@@H](O)[C@@H]1O [Kan, kanamycin]",Kan MIC Fold change (↓ decrease),K. pneumoniae [3]; [14],↓2x fold
same,Kan MIC Fold change (↓ decrease),S. marcescens [5]; [16],↓2x fold
same,MIC,E. cloacae [6]; read-out: Kan (MIC alone),2 µg/mL
same,MIC,"E. coli [7]; ATCC25922, read-out: Kan (MIC alone)",2 µg/mL
same,MIC,E. coli [7]; read-out: Kan (MIC alone),16 µg/mL
same,MIC,E. coli [7]; [18],8 µg/mL
same,MIC,K. pneumoniae [8]; read-out: Kan (MIC alone),4 µg/mL
same,MIC,P. aeruginosa [9]; read-out: Kan (MIC alone),64 µg/mL
same,MIC,P. aeruginosa [9]; [18],32 µg/mL
same,MIC,S. marcescens [10]; read-out: Kan (MIC alone),4 µg/mL
